Laboratory results reported in patent US7118895B2, “Process for producing aglycon by using diglycosidase and flavor-improved food containing the aglycon and converting agent to be used in the process” (Amano Enzyme Inc., priority 2000, dated 2006).

Tested on: Crude diglycosidase
Assay: Examination of temperature in the conversion into isoflavone aglycons by diglycosidase using soybean materials
Format: biochemical, Penicillium multicolor IAM7153
Conditions: for maximum isolation of aglycons: reaction at 55° C. for 6 hours
Summary of the method: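 Temperature series (30-80° C.) of crude diglycosidase, diluted to 1.88 AU/mL in 20 mM acetate pH 4.0, acting on roasted soy flour, soymilk, defatted soybean or soy protein concentrate. Samples quenched with ethanol after 0-6 h, centrifuged, filtered and analyzed by HPLC for glycosides versus aglycons.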

O=c1c(-c2ccc(O)cc2)coc2cc(O)cc(O)c12 [genistein]
Decomposition efficiency of genistin family in defatted soybean (30° C., heat treatment of enzyme no, reaction time 1 h): 47.4%
Decomposition efficiency of genistin family in defatted soybean (30° C., heat treatment of enzyme no, reaction time 3 h): 50.2%
Decomposition efficiency of genistin family in defatted soybean (30° C., heat treatment of enzyme no, reaction time 6 h): 46.6%
Decomposition efficiency of genistin family in defatted soybean (30° C., heat treatment of enzyme yes, reaction time 6 h): 50.2%
Decomposition efficiency of genistin family in defatted soybean (45° C., heat treatment of enzyme no, reaction time 0 h): 14.5%
Decomposition efficiency of genistin family in defatted soybean (45° C., heat treatment of enzyme no, reaction time 1 h): 49.2%
Decomposition efficiency of genistin family in defatted soybean (45° C., heat treatment of enzyme no, reaction time 3 h): 51.8%
Decomposition efficiency of genistin family in defatted soybean (45° C., heat treatment of enzyme no, reaction time 6 h): 54.6%
Decomposition efficiency of genistin family in defatted soybean (45° C., heat treatment of enzyme yes, reaction time 6 h): 50.4%
Decomposition efficiency of genistin family in defatted soybean (55° C., heat treatment of enzyme no, reaction time 1 h): 50.5%
Decomposition efficiency of genistin family in defatted soybean (55° C., heat treatment of enzyme no, reaction time 3 h): 53.7%
Decomposition efficiency of genistin family in defatted soybean (55° C., heat treatment of enzyme no, reaction time 6 h): 56.5%
Decomposition efficiency of genistin family in defatted soybean (55° C., heat treatment of enzyme yes, reaction time 6 h): 51.9%
Decomposition efficiency of genistin family in defatted soybean (65° C., heat treatment of enzyme no, reaction time 0 h): 14.5%
Decomposition efficiency of genistin family in defatted soybean (65° C., heat treatment of enzyme no, reaction time 1 h): 49.9%
Decomposition efficiency of genistin family in defatted soybean (65° C., heat treatment of enzyme no, reaction time 3 h): 51.8%
Decomposition efficiency of genistin family in defatted soybean (65° C., heat treatment of enzyme no, reaction time 6 h): 54.5%
Decomposition efficiency of genistin family in defatted soybean (65° C., heat treatment of enzyme yes, reaction time 6 h): 30.7%
Decomposition efficiency of genistin family in defatted soybean (80° C., heat treatment of enzyme no, reaction time 0 h): 14.5%
Decomposition efficiency of genistin family in defatted soybean (80° C., heat treatment of enzyme no, reaction time 1 h): 44.9%
Decomposition efficiency of genistin family in defatted soybean (80° C., heat treatment of enzyme no, reaction time 3 h): 43.3%
Decomposition efficiency of genistin family in defatted soybean (80° C., heat treatment of enzyme no, reaction time 6 h): 41.3%
Decomposition efficiency of genistin family in defatted soybean (80° C., heat treatment of enzyme yes, reaction time 6 h): 19.6%
maximum isolation of aglycons (concentrated soybean protein): about 61%
maximum isolation of aglycons (defatted soybean): about 57%
maximum isolation of aglycons (soy flour): about 74%
maximum isolation of aglycons (soymilk): about 80%
